Results: EP2970215B1, “PYRROLIDINE DERIVATIVES, PHARMACEUTICAL COMPOSITIONS CONTAINING THEM, AND THEIR USE IN THERAPY” (AbbVie Deutschland GmbH & Co. KG, priority 2013, dated 2014)

What follows are compounds tested against T1, human GlyT1c transporter (Homo sapiens, UniProt P48067) (assay: Radioligand binding assay using recombinant CHO cell membranes expressing human GlyT1). Conditions: radioligand binding to human GlyT1c transporter-expressing membranes.
T1 construct: expressed in transfected cells; host or cells: CHO cells (recombinant; line hGlyT1c_5_CHO is named for the uptake assay)
T1 sequence (P48067 1-706): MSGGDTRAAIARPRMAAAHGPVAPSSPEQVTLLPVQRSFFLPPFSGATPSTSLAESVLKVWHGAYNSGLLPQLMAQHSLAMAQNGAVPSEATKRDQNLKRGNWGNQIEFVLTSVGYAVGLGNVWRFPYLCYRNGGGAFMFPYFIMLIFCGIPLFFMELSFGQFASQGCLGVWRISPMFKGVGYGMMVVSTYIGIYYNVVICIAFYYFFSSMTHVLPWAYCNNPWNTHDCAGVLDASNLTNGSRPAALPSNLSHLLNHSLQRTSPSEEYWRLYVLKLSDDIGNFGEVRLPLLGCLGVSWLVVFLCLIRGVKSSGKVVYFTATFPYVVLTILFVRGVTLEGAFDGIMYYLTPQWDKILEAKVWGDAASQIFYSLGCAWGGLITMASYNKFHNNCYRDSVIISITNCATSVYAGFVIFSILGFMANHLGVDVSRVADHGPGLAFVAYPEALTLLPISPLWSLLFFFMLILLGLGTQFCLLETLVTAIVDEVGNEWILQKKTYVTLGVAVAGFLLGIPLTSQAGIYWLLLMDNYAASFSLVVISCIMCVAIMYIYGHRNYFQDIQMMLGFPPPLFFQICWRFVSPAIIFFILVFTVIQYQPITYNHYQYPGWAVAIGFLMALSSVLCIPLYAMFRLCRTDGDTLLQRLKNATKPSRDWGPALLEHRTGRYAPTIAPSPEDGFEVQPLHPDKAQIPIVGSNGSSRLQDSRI
Text: 2. Radioligand binding assays using recombinant CHO cell membranes expressing human GlyT1: […]
`O=S(=O)(c1ccc(N2CCOCC2)nc1)N1CC(Nc2ccc(F)c(F)c2)C(c2ccccc2)C1` (stereo not drawn) [Example 494, N-(3,4-difluorophenyl)-1-{[6-(morpholin-4-yl)pyridin-3-yl]sulfonyl}-4-phenylpyrrolidin-3-amine] gave a Ki of no more than 10000 nM.
With `Cn1cnc(S(=O)(=O)N2C[C@@H]([C@@H]3CCCOC3)[C@H](Nc3ccc(F)c(OC(F)(F)F)c3)C2)c1` (mixture of isomers) [Example 788, Trans-N-[4-fluoro-3-(trifluoromethoxy)phenyl]-1-[(1-methyl-1H-imidazol-4-yl)sulfonyl]-4-[(3S)-tetrahydro-2H-pyran-3-yl]pyrrolidin-3-amine] the Ki was no more than 1000 nM.
`Cn1cnc(S(=O)(=O)N2C[C@H](Nc3ncc(F)c(C(F)(F)F)c3F)[C@@H](c3ccccc3)C2)c1` [Example 408, 3,5-difluoro-N-{(3R,4S)-1-[(1-methyl-1H-imidazol-4-yl)sulfonyl]-4-phenylpyrrolidin-3-yl}-4-(trifluoromethyl)pyridin-2-amine] gave a Ki of no more than 10000 nM.
`Cn1cnc(S(=O)(=O)N2C[C@@H](Nc3cccc(C(F)(F)F)c3)[C@H](c3ccccn3)C2)c1` (relative stereo) [Example 344, trans-1-[(1-methyl-1H-imidazol-4-yl)sulfonyl]-4-(pyridin-2-yl)-N-[3-(trifluoromethyl)phenyl]pyrrolidin-3-amine] was tested, and the Ki was no more than 100 nM.
`Cn1cnc(S(=O)(=O)N2C[C@@H](Nc3cccc(Cl)c3)[C@H](c3ccccc3Cl)C2)c1` (relative stereo) [Example 278, trans-4-(2-chlorophenyl)-N-(3-chlorophenyl)-1-[(1-methyl-1H-imidazol-4-yl)sulfonyl]pyrrolidin-3-amine] showed a Ki of no more than 100 nM.
`CCCCC(CC)CN[C@H]1CN(S(=O)(=O)c2cn(C)cn2)C[C@@H]1c1ccccc1` (stereo partly drawn) [Example 433, (3R,4S)-N-(2-ethylhexyl)-1-[(1-methyl-1H-imidazol-4-yl)sulfonyl]-4-phenylpyrrolidin-3-amine] gave a Ki of no more than 100 nM.
`Cc1ccc(N[C@H]2CN(S(=O)(=O)c3cn(C)cn3)C[C@@H]2c2ccc(F)cc2)cc1C(F)(F)F` [Example 638, (3R,4S)-4-(4-fluorophenyl)-1-[(1-methyl-1H-imidazol-4-yl)sulfonyl]-N-[4-methyl-3-(trifluoromethyl)phenyl]pyrrolidin-3-amine] was tested, and the Ki was no more than 1000 nM.
With `Cn1cnc(S(=O)(=O)N2C[C@@H](Nc3ccncc3)[C@H](c3cccc(F)c3)C2)c1` (relative stereo) [Example 191, N-{trans-4-(3-fluorophenyl)-1-[(1-methyl-1H-imidazol-4-yl)sulfonyl]pyrrolidin-3-yl}pyridin-4-amine] the Ki was no more than 10000 nM.
With `Cn1cnc(S(=O)(=O)N2C[C@@H](Nc3ccc(F)cc3)[C@H](c3ccccc3F)C2)c1` (relative stereo) [Example 200, trans-4-(2-fluorophenyl)-N-(4-fluorophenyl)-1-[(1-methyl-1H-imidazol-4-yl)sulfonyl]pyrrolidin-3-amine] the Ki was no more than 1000 nM.
`Cn1cnc(S(=O)(=O)N2C[C@@H](Nc3cccc(F)c3)[C@H](c3ccc(F)cc3)C2)c1` (relative stereo) [Example 91, trans-N-(3-fluorophenyl)-4-(4-fluorophenyl)-1-[(1-methyl-1H-imidazol-4-yl)sulfonyl]pyrrolidin-3-amine] showed a Ki of no more than 100 nM.
`Cn1cnc(S(=O)(=O)N2C[C@@H](NCc3cccc(Cl)c3)[C@H](c3ccc(F)cc3)C2)c1` (relative stereo) [Example 261, trans-N-(3-chlorobenzyl)-4-(4-fluorophenyl)-1-[(1-methyl-1H-imidazol-4-yl)sulfonyl]pyrrolidin-3-amine] gave a Ki of no more than 1000 nM.
Work on `Cn1cnc(S(=O)(=O)N2C[C@@H](Nc3ccc4cccnc4c3)[C@H](c3ccccc3)C2)c1` (relative stereo) [Example 228, N-{trans-1-[(1-methyl-1H-imidazol-4-yl)sulfonyl]-4-phenylpyrrolidin-3-yl}quinolin-7-amine] yielded a Ki of no more than 10000 nM.
`Cn1cnc(S(=O)(=O)N2C[C@H](Nc3cc(-c4ccccc4F)ncn3)[C@@H](c3ccc(F)cc3)C2)c1` [Example 726, 6-(2-fluorophenyl)-N-{(3R,4S)-4-(4-fluorophenyl)-1-[(1-methyl-1H-imidazol-4-yl)sulfonyl]pyrrolidin-3-yl}pyrimidin-4-amine] showed a Ki of no more than 100 nM.
`Cn1cnc(S(=O)(=O)N2C[C@@H](NCc3ccc(C(F)(F)F)cc3Cl)[C@H](c3ccccc3)C2)c1` [Example 395, (3S,4R)-N-[2-chloro-4-(trifluoromethyl)benzyl]-1-[(1-methyl-1H-imidazol-4-yl)sulfonyl]-4-phenylpyrrolidin-3-amine] was tested, and the Ki was no more than 1000 nM.
With `COc1ccc(S(=O)(=O)N2C[C@@H](NC(=O)c3cccc(C(F)(F)F)c3Cl)[C@H](c3ccccc3)C2)cn1` (relative stereo) [Example 44, 2-chloro-N-{trans-1-[(6-methoxypyridin-3-yl)sulfonyl}-4-phenylpyrrolidin-3-yl}-3-(trifluoromethyl)benzamide] the Ki was no more than 10000 nM.
`Cn1cnc(S(=O)(=O)N2C[C@@H](COc3ccnc(C(F)(F)F)c3)[C@H](c3ccc(F)cc3)C2)c1` (relative stereo) [Example 366, 4-({Trans-4-(4-fluorophenyl)-1-[(1-methyl-1H-imidazol-4-yl)sulfonyl]pyrrolidin-3-yl}methoxy)-2-(trifluoromethyl)pyridine] was tested, and the Ki was no more than 100 nM.
For `Cn1cnc(S(=O)(=O)N2C[C@H](Nc3cc(OCC4CCCN4)ncn3)[C@@H](c3ccc(F)cc3)C2)c1` (stereo partly drawn) [Example 780, N-{(3R,4S)-4-(4-fluorophenyl)-1-[(1-methyl-1H-imidazol-4-yl)sulfonyl]pyrrolidin-3-yl}-6-(pyrrolidin-2-ylmethoxy)pyrimidin-4-amine], the Ki was no more than 10000 nM.
`O=c1[nH]c(=O)c2cc(S(=O)(=O)N3CC(Nc4ccc(F)c(F)c4)C(c4ccccc4)C3)ccc2[nH]1` (stereo not drawn) [Example 480, 6-({3-[(3,4-difluorophenyl)amino]-4-phenylpyrrolidin-1-yl}sulfonyl)quinazoline-2,4(1H,3H)-dione] was tested, and the Ki was greater than 10000 nM.
Compound `Cn1cnc(S(=O)(=O)N2C[C@@H](C(=O)NCc3ccc(Cl)cc3)[C@H](c3ccc(F)cc3)C2)c1` (relative stereo) [Example 629, Trans-N-(4-chlorobenzyl)-4-(4-fluorophenyl)-1-[(1-methyl-1H-imidazol-4-yl)sulfonyl]pyrrolidine-3-carboxamide] has a Ki of no more than 1000 nM.
`Cn1cnc(S(=O)(=O)N2C[C@@H](Nc3cccc(F)c3F)[C@H](c3ccc(F)cc3)C2)c1` (relative stereo) [Example 163, trans-N-(2,3-difluorophenyl)-4-(4-fluorophenyl)-1-[(1-methyl-1H-imidazol-4-yl)sulfonyl]pyrrolidin-3-amine] gave a Ki of no more than 1000 nM.
Compound `Cn1cnc(S(=O)(=O)N2C[C@@H](CNc3ccc(F)c(C(F)(F)F)c3)[C@H](c3ccc(F)cc3)C2)c1` (relative stereo) [Example 313, 4-fluoro-N-({trans-4-(4-fluorophenyl)-1-[(1-methyl-1H-imidazol-4-yl)sulfonyl]pyrrolidin-3-yl}methyl)-3-(trifluoromethyl)aniline] has a Ki of no more than 1000 nM.
`Cn1cnc(S(=O)(=O)N2C[C@@H]([C@@H]3CCCOC3)[C@H](Nc3ccc(Cl)c(OC(F)(F)F)c3)C2)c1` (relative stereo) [Example 793, Trans-N-[4-chloro-3-(trifluoromethoxy)phenyl]-1-[(1-methyl-1H-imidazol-4-yl)sulfonyl]-4-[(3S)-tetrahydro-2H-pyran-3-yl]pyrrolidin-3-amine] showed a Ki of no more than 10000 nM.
In the case of `Cn1cnc(S(=O)(=O)N2C[C@@H](NC(=O)c3ccc(C(F)(F)F)c(Cl)c3)[C@H](c3ccccc3)C2)c1` (relative stereo) [Example 61, 3-chloro-N-{trans-1-[(1-methyl-1H-imidazol-4-yl)sulfonyl]-4-phenylpyrrolidin-3-yl}-4-(trifluoromethyl)benzamide], the Ki is reported as no more than 1000 nM.
`Cn1cnc(S(=O)(=O)N2C[C@H](Nc3cccc(-c4ccccn4)c3)[C@@H](c3ccc(F)cc3)C2)c1` [Example 801, (3R,4S)-4-(4-fluorophenyl)-1-[(1-methyl-1H-imidazol-4-yl)sulfonyl]-N-[3-(pyridin-2-yl)phenyl]pyrrolidin-3-amine] was tested, and the Ki was no more than 10 nM.
In the case of `Cn1cnc(S(=O)(=O)N2C[C@@H](Nc3ccc(C(F)(F)F)cc3)[C@H](c3ccccc3Cl)C2)c1` (relative stereo) [Example 256, trans-4-(2-chlorophenyl)-1-[(1-methyl-1H-imidazol-4-yl)sulfonyl]-N-[4-(trifluoromethyl)phenyl]pyrrolidin-3-amine], the Ki is reported as no more than 1000 nM.
`Cn1cnc(S(=O)(=O)N2C[C@@H](Nc3ccccn3)[C@H](c3ccccc3)C2)c1` (relative stereo) [Example 207, N-{trans-1-[(1-methyl-1H-imidazol-4-yl)sulfonyl]-4-phenylpyrrolidin-3-yl}pyridin-2-amine] gave a Ki of no more than 10000 nM.
`Cn1cnc(S(=O)(=O)N2C[C@@H](NC(=O)c3ccc(Cl)cc3Cl)[C@H](c3ccccc3)C2)c1` (relative stereo) [Example 26, 2,4-dichloro-N-{trans-1-[(1-methyl-1H-imidazol-4-yl)sulfonyl]-4-phenylpyrrolidin-3-yl}benzamide] gave a Ki of no more than 1000 nM.
